Test results taken from ChEMBL document CHEMBL4706632, “Development of Potential Antitumor Agents from the Scaffolds of Plant-Derived Terpenoid Lactones” (J Med Chem, 2020).

Tests used:
[1] = tested on: HeLa; experiment: Cytotoxicity against human HeLa cells; format: functional, cell-based
[2] = tested on: MCF7; experiment: Cytotoxicity against human MCF7 cells; format: functional, cell-based
[3] = tested on: NCI-H446; experiment: Cytotoxicity against human NCI-H446 cells; format: functional, cell-based
[4] = tested on: HT-29; experiment: Cytotoxicity against human HT-29 cells incubated for 72 hrs by sulforhodamine B assay; format: functional, cell-based; conditions: HT-29, 72 h
[5] = tested on: L1210; experiment: Cytotoxicity against mouse L1210 cells; format: functional, cell-based
[6] = tested on: Jurkat; experiment: Cytotoxicity against human Jurkat cells incubated for 72 hrs by ATPlite assay; format: functional, cell-based
[7] = tested on: HCT-116; experiment: Cytotoxicity against human HCT116 cells incubated for 72 hrs by ATPlite assay; format: functional, cell-based; conditions: HCT-116, 72 h
[8] = tested on: HL-60; experiment: Cytotoxicity against human HL-60 cells incubated for 72 hrs by ATPlite assay; format: functional, cell-based; conditions: HL-60, 72 h
[9] = tested on: WM 266-4; experiment: Cytotoxicity against human WM 266-4 cells incubated for 72 hrs by ATPlite assay; format: functional, cell-based; conditions: WM 266-4, 72 h
[10] = tested on: SW626; experiment: Cytotoxicity against human SW626 cells; format: functional, cell-based
[11] = tested on: CCRF-CEM; experiment: Cytotoxicity against human CEM cells incubated for 72 hrs by MTT assay; format: functional, cell-based
[12] = tested on: LNCaP; experiment: Cytotoxicity against human LNCaP cells; format: functional, cell-based
[13] = Cytotoxicity against human Lu-1 cells; format: functional, cell-based; conditions: Lu1
[14] = tested on: MCF7; experiment: Antiproliferative activity against human MCF7 cells by tetrazolium-based semiautomated colorimetric assay; format: functional, cell-based
[15] = tested on: SW480; experiment: Antiproliferative activity against human SW480 cells incubated for 72 hrs by MTT assay; format: functional, cell-based; conditions: SW480, 72 h
[16] = tested on: MCF7; experiment: Antiproliferative activity against human MCF7 cells incubated for 48 hrs by [3H]-thymidine incorporation assay; format: functional, cell-based
[17] = tested on: MDA-MB-435; experiment: Antiproliferative activity against human MDA-MB-435 cells incubated for 48 hrs by [3H]-thymidine incorporation assay; format: functional, cell-based
[18] = tested on: PANC-1; experiment: Cytotoxicity against human Panc-1 cells incubated for 72 hrs by alamar blue assay; format: functional, cell-based; conditions: PANC-1, 72 h
[19] = tested on: SW1990; experiment: Antiproliferative activity against human SW1990 incubated for 72 hrs by alamar blue assay; format: functional, cell-based; conditions: SW1990, 72 h
[20] = tested on: BXPC-3; experiment: Antiproliferative activity against human BXPC-3 incubated for 72 hrs by alamar blue assay; format: functional, cell-based; conditions: BXPC-3, 72 h
[21] = tested on: SW480; experiment: Cytotoxicity against human SW480 cells incubated for 72 hrs by Cell Titer-Glo luminescence assay; format: functional, cell-based; conditions: SW480, 72 h
[22] = tested on: HGC-27; experiment: Cytotoxicity against human HGC-27 cells incubated for 72 hrs by Alamar Blue method; format: functional, cell-based; conditions: HGC-27, 72 h
[23] = Antiproliferative activity against human PaTu8988 incubated for 72 hrs by alamar blue assay; format: functional; conditions: PaTu8988, 72 h
[24] = tested on: Raji; experiment: Antiproliferative activity against human Raji cells incubated for 3 to 6 days by alamar blue assay; format: functional, cell-based
[25] = tested on: Jurkat; experiment: Antiproliferative activity against human Jurkat cells incubated for 3 to 6 days by alamar blue assay; format: functional, cell-based
[26] = tested on: LNCaP; experiment: Antiproliferative activity against human LNCaP cells incubated for 72 hrs by CCK8 assay; format: functional, cell-based
[27] = tested on: ASPC1; experiment: Antiproliferative activity against human ASPC1 incubated for 72 hrs by alamar blue assay; format: functional, cell-based; conditions: ASPC1, 72 h
[28] = tested on: DU-145; experiment: Antiproliferative activity against human DU-145 cells incubated for 72 hrs by CCK8 assay; format: functional, cell-based; conditions: DU-145, 72 h
[29] = tested on: RKO; experiment: Cytotoxicity against human RKO cells incubated for 72 hrs by Cell Titer-Glo luminescence assay; format: functional, cell-based
[30] = tested on: AGS; experiment: Cytotoxicity against human AGS cells incubated for 72 hrs by Alamar Blue method; format: functional, cell-based
[31] = Antitumor activity against human PaTu8988 cells xenografted in NOD/SCID mouse assessed as tumor growth inhibition at 5 mg/kg, ip administered daily for 60 days by digital caliper method relative to control; format: functional; conditions: 1440 h, time 60 day, read-out: TGI
[32] = tested on: SGC-7901; experiment: Cytotoxicity against human SGC-7901 cells incubated for 72 hrs by Alamar Blue method; format: functional, cell-based; conditions: SGC-7901, 72 h
[33] = tested on: MGC-803; experiment: Cytotoxicity against human MGC-803 cells incubated for 72 hrs by Alamar Blue method; format: functional, cell-based; conditions: MGC-803, 72 h
[34] = tested on: CFPAC-1; experiment: Antiproliferative activity against human CFPAC-1 incubated for 72 hrs by alamar blue assay; format: functional, cell-based; conditions: CFPAC-1, 72 h
[35] = tested on: PC-3; experiment: Antiproliferative activity against human PC-3 cells incubated for 72 hrs by CCK8 assay; format: functional, cell-based; conditions: PC-3, 72 h
[36] = tested on: NCI-N87; experiment: Cytotoxicity against human NCI-N87 cells incubated for 72 hrs by Alamar Blue method; format: functional, cell-based; conditions: NCI-N87, 72 h
[37] = tested on: HeLa; experiment: Antiproliferative activity against human HeLa cells; format: functional, cell-based
[38] = tested on: HT-29; experiment: Antiproliferative activity against human HT-29 cells; format: functional, cell-based
[39] = tested on: HL-60; experiment: Antiproliferative activity against human HL-60 cells; format: functional, cell-based
[40] = tested on: HCT-116; experiment: Antiproliferative activity against human HCT-116 cells incubated for 72 hrs by WST-1 assay; format: functional, cell-based; conditions: HCT-116, 72 h
[41] = tested on: MDA-MB-231; experiment: Cytotoxicity against human MDA-MB-231 cells incubated for 72 hrs by MTT assay; format: functional, cell-based; conditions: MDA-MB-231, 72 h
[42] = tested on: MCF7; experiment: Cytotoxicity against human MCF-7 cells incubated for 72 hrs by MTT assay; format: functional, cell-based; conditions: MCF7, 72 h
[43] = tested on: A549; experiment: Antiproliferative activity against human A549 cells incubated for 48 hrs by MTT assay; format: functional, cell-based; conditions: A549, 48 h
[44] = tested on: NCI-H1975; experiment: Antiproliferative activity against human NCI-H1975 cells incubated for 48 hrs by MTT assay; format: functional, cell-based; conditions: NCI-H1975, 48 h
[45] = tested on: P388; experiment: Cytotoxicity against mouse P388 cells incubated for 48 hrs by MTT assay; format: functional, cell-based; conditions: P388, 48 h
[46] = tested on: HT-29; experiment: Cytotoxicity against human HT-29 cells incubated for 24 hrs by MTS method; format: functional, cell-based; conditions: HT-29, 24 h
[47] = Cytotoxicity against human MDA-Panc-28 cells incubated for 24 hrs by MTS method; format: functional, cell-based; conditions: MDA-Panc-28, 24 h
[48] = tested on: Bel-7402; experiment: Cytotoxicity against human Bel-7402 cells incubated for 24 hrs by MTS method; format: functional, cell-based; conditions: Bel-7402, 24 h

`C[C@@]12[C@H](O)C=C[C@]3(C)C(=O)O[C@H](C=C4COC(=O)C[C@H]41)[C@H]23` gave an IC50 [1] of 10000 nM, an IC50 [2] of 11000 nM and an IC50 [3] of 16000 nM.

Work on `COC/C(C)=C/[C@@H]1OC(=O)[C@H]([C@@H]2CC[C@]34C[C@]23C=C[C@@H]2[C@@]3(C)CC=C5C[C@@H](c6ccc7c(c6)OCO7)OC[C@]5(C)[C@@H]3C[C@@H](O)[C@]24C)[C@H]1O` yielded an IC50 [4] greater than 10000 nM.

Work on `C/C(=C\[C@H]1C[C@@H]([C@@H]2CC[C@]34C[C@]23C=C[C@@H]2[C@@]3(C)CC=C5C[C@@H](c6ccccc6)OC[C@]5(C)[C@@H]3C[C@@H](O)[C@]24C)C(=O)O1)CO` [DICHAPETALIN A] yielded an EC90 [5] of less than 0.17 nM, an IC50 [6] of 3000 nM and an EC50 [7] of 250 nM. It also gave an IC50 [8] of 11000 nM, an EC50 [9] of 17000 nM and an IC50 [10] of 340 nM. For the same compound, the IC50 [11] was 9600 nM, the IC50 [12] was 12000 nM and the IC50 [13] was 7000 nM.

In the case of `C[C@H]1[C@@H](CCC(=O)NCC[C@H]2O[C@@H]3O[C@]4(C)CC[C@H]5[C@H](C)CC[C@@H]([C@H]2C)[C@@]35OO4)O[C@@H]2O[C@@]3(C)CC[C@H]4[C@H](C)CC[C@@H]1[C@@]24OO3`, the IC50 [14] is reported as 8 nM.

`CC1(C)OC(=O)C=C[C@]2(C)[C@H]3CC[C@@]4(C)[C@H](c5ccoc5)OC(=O)[C@H]5O[C@]54[C@]3(C)C(=O)C[C@@H]12` [OBACUNONE] showed an IC50 [15] of 56000 nM, an IC50 [16] of 20 nM and an IC50 [17] of 6800 nM.

`CC(C)[C@]12O[C@H]1[C@@H]1O[C@@]13[C@@]1(C)CCC4=C(COC4=O)[C@@H]1C[C@@H]1O[C@@]13C2=O` [TRIPTONIDE] showed an IC50 [18] of less than 20 nM, an IC50 [19] of less than 20 nM and an IC50 [20] of less than 20 nM. It also gave an IC50 [21] of 17 nM, an IC50 [22] of less than 20 nM and an IC50 [23] of less than 20 nM. It also gave an IC50 [24] of 4 nM, an IC50 [25] of 4 nM and an IC50 [26] of 10 nM. The IC50 [27] was less than 20 nM, the IC50 [28] was 10 nM and the IC50 [29] was 15 nM. The IC50 [30] was less than 20 nM, the inhibition in vivo at 5 mg/kg [31] was 97.5% and the IC50 [32] was less than 20 nM. It also gave an IC50 [33] of less than 20 nM, an IC50 [34] of less than 20 nM and an IC50 [35] of 12 nM. It also gave an IC50 [36] of less than 20 nM.

With `COC(=O)[C@@]12OC[C@]34[C@H]([C@@H](O)[C@@H]1O)[C@@]1(C)CC(=O)C(O)=C(C)[C@@H]1C[C@H]3OC(=O)[C@H](OC(=O)CC(C)C)[C@@H]24` [BRUCEINE A] the IC50 [37] was 1100 nM, the IC50 [38] was 3100 nM and the IC50 [39] was 130 nM. For the same compound, the IC50 [40] was 82 nM, the IC50 [41] was 230 nM and the IC50 [42] was 180 nM.

`CC(C)[C@H]1OC(=O)C=C2[C@@]13O[C@@H]3[C@H]1OC(=O)[C@@]3(C)[C@@H](O)CC[C@@]2(C)[C@@H]13` gave an IC50 [43] of 5200 nM, an IC50 [44] of 3600 nM and an IC50 [45] of 720 nM.

With `CO[C@@]12OC(=O)C(CO)=C1[C@H]1O[C@]13CC[C@@H]1C(C)(C)CCC[C@@]1(C)[C@@H]3[C@H]2O` the IC50 [46] was greater than 50000 nM, the IC50 [47] was greater than 50000 nM and the IC50 [48] was greater than 50000 nM.
